Assay results: ChEMBL document CHEMBL3044970, “Isoniazid: the magic molecule” (2012)
Converted amounts (≈) assume the structure as drawn.

Key:
Type in all cases: functional
[1] = tested on: Mycobacterium tuberculosis; experiment: Antimicrobial activity against drug-resistant Mycobacterium tuberculosis infected in macrophages
[2] = tested on: Mycobacterium tuberculosis; experiment: Antimicrobial activity against INH-resistant Mycobacterium tuberculosis
[3] = tested on: Mycobacterium tuberculosis; experiment: Antimicrobial activity against INH-resistant Mycobacterium tuberculosis by agar dilution method relative to isonicotinoyl hydrazide
[4] = Selectivity ratio of MIC for Mycobacterium tuberculosis H37Rv to MIC for INH-resistant Mycobacterium tuberculosis clinical isolate
[5] = tested on: Mycobacterium tuberculosis; experiment: Ratio of INH MIC to compound MIC for INH-resistant Mycobacterium tuberculosis

In the case of C/C(=N\NC(=O)c1ccncc1)c1cccc(F)c1, the MIC [1] is reported as < 0.05 µg/mL.
For O=C(NNC(=S)Nc1ccccc1C(F)(F)F)c1ccncc1, the MIC [2] was 0.58 µM (≈ 0.197 µg/mL) and the Ratio [3] was 157.
Work on O=C(c1ccncc1)N1N=C(c2ccco2)CC1(O)C(F)(F)F (stereo unspecified) yielded a Selectivity ratio [4] of 2.
Compound COc1cc(C2=NN(C(=O)c3ccncc3)C(c3ccc(O)cc3)C2)ccc1OCC(=O)O (stereo unspecified) has a Ratio [5] of 78 and an MIC [2] of 0.12 µM (≈ 0.0537 µg/mL).
